From ChEMBL document CHEMBL5579884, “Cellular, Structural Basis, and Recent Progress for Targeting Murine Double Minute X (MDMX) in Tumors” (J Med Chem, 2024)

Legend:
[1] = test system: BGC-823; experiment: Cytotoxicity against human BGC-823 cells assessed as reduction in cell growth incubated for 48 hrs by MTT assay; conditions: BGC-823, 48 h
[2] = test system: BT-474; experiment: Cytotoxicity against human BT-474 cells assessed as cell growth inhibition
[3] = test system: KATO III stomach cancer cell line; experiment: Cytotoxicity against human KATO III stomach cancer cell line assessed as reduction in cell growth incubated for 48 hrs by MTT assay
[4] = test system: ZR-75-1; experiment: Cytotoxicity against human ZR-75-1 cells assessed as reduction in cell growth
[5] = test system: MKN-45; experiment: Cytotoxicity against human MKN-45 cells assessed as reduction in cell growth incubated for 48 hrs by MTT assay; conditions: MKN-45, 48 h
[6] = test system: ZR-75-30; experiment: Cytotoxicity against human ZR-75-30 cells assessed as reduction in cell growth
[7] = test system: NCI-N87; experiment: Cytotoxicity against human NCI-N87 cells assessed as reduction in cell growth incubated for 48 hrs by MTT assay; conditions: NCI-N87, 48 h
[8] = test system: BT-549; experiment: Cytotoxicity against human BT-549 cells assessed as cell growth inhibition
[9] = test system: SGC-7901; experiment: Cytotoxicity against human SGC-7901 cells assessed as reduction in cell growth incubated for 48 hrs by MTT assay; conditions: SGC-7901, 48 h
[10] = test system: MCF7; experiment: Cytotoxicity against human MCF7 cells assessed as reduction in cell growth
[11] = test system: Hs-578T; experiment: cells; conditions: Homo sapiens
Description: Cytotoxicity against human Hs-578T cells assessed as cell growth inhibition

[12] = test system: MDA-MB-175-VII; experiment: cells; conditions: Homo sapiens
Description: Cytotoxicity against human MDA-MB-175-VII cells assessed as reduction in cell growth

[13] = test system: Prostatic carcinoma cell; experiment: Cytotoxicity against human Prostatic carcinoma cell
[14] = test system: HGC-27; experiment: Cytotoxicity against human HGC-27 cells assessed as reduction in cell growth incubated for 48 hrs by MTT assay; conditions: HGC-27, 48 h
[15] = test system: LAPC4; experiment: Antiproliferative activity against human LAPC4 cells assessed as reduction in cell growth
[16] = test system: MDA-MB-435; experiment: Antiproliferative activity against human MDA-MB-435 cells assessed as reduction in cell growth
[17] = test system: SW480; experiment: Antiproliferative activity against human SW480 cells assessed as reduction in cell growth
[18] = test system: MCF7; experiment: Antiproliferative activity against human MCF7 cells assessed as reduction in cell growth
[19] = test system: LNCaP C4-2; experiment: Antiproliferative activity against human C4-2 cells assessed as reduction in cell growth
[20] = test system: PC-3; experiment: Antiproliferative activity against human PC-3 cells assessed as reduction in cell growth
[21] = test system: LNCaP; experiment: Antiproliferative activity against human LNCaP cells assessed as reduction in cell growth
[22] = test system: RKO; experiment: Antiproliferative activity against human RKO cells assessed as reduction in cell growth
[23] = test system: DU-145; experiment: Antiproliferative activity against human DU-145 cells assessed as reduction in cell growth
[24] = test system: HCT-116; experiment: Antiproliferative activity against human HCT-116 cells assessed as reduction in cell growth by MTT assay
[25] = test system: OCI-AML-3; experiment: Antiproliferative activity against human OCI-AML-3 cells assessed as reduction in cell viability measured for 48 hrs by MTT assay; conditions: OCI-AML-3, 48 h
[26] = biological target: T1, Protein Mdm4 (Homo sapiens, UniProt O15151); experiment: Inhibition of MDMX (unknown origin)
T1 sequence (O15151 whole entry): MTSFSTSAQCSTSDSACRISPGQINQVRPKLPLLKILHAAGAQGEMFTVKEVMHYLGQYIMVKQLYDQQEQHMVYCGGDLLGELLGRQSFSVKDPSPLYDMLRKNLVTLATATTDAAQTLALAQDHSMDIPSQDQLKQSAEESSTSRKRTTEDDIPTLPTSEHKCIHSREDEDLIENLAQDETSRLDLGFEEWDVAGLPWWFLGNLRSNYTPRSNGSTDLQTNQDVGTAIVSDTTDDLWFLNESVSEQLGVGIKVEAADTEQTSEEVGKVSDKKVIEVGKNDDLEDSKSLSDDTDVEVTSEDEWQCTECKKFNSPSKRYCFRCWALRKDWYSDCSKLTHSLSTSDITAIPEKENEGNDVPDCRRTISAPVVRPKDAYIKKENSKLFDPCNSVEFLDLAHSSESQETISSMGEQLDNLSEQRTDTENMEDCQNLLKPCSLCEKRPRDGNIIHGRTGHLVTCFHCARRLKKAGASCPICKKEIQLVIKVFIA

[27] = test system: MCF7; experiment: Antiproliferative activity against human MCF7 cells assessed as reduction in cell viability measured for 48 hrs by MTT assay; conditions: MCF7, 48 h
[28] = biological target: T2, E3 ubiquitin-protein ligase Mdm2 (Homo sapiens, UniProt Q00987); experiment: Inhibition of MDM2 (unknown origin)
[29] = test system: A549; experiment: Antiproliferative activity against human A549 cells assessed as reduction in cell viability measured for 48 hrs by MTT assay; conditions: A549, 48 h
[30] = test system: HCT-116; experiment: Antiproliferative activity against human HCT-116 cells assessed as reduction in cell viability measured for 48 hrs by MTT assay; conditions: HCT-116, 48 h
[31] = biological target: T2, E3 ubiquitin-protein ligase Mdm2; experiment: Binding affinity to MDM2 (unknown origin) assessed as dissociation constant
[32] = test system: HCT-116; experiment: Antiproliferative activity against human HCT-116 cells assessed as reduction in cell viability incubated for 24 hrs by Celltiter-Glo assay; conditions: HCT-116, 24 h
[33] = test system: T98G; experiment: Antiproliferative activity against human T98G cells assessed as reduction in cell growth incubated for 72 hrs by MTS assay
[34] = Antiproliferative activity against human C20/A4 cells assessed as reduction in cell growth incubated for 72 hrs by MTS assay
[35] = test system: U-87 MG; experiment: Antiproliferative activity against human U-87 MG cells assessed as reduction in cell growth incubated for 72 hrs by MTS assay
[36] = test system: MCF7; experiment: Antiproliferative activity against human MCF7 cells assessed as reduction in cell growth incubated for 72 hrs by MTS assay; conditions: MCF7, 72 h
[37] = Antiproliferative activity against human U373 MG cells assessed as reduction in cell growth incubated for 72 hrs by MTS assay
[38] = Cytotoxicity against human Triple-negative breast cancer cell; conditions: Breast carcinoma cell
[39] = test system: Breast cancer cell line; experiment: Cytotoxicity against human Breast cancer cell line
[40] = test system: DU-145; experiment: Antiproliferative activity against human DU-145 cells assessed as reduction in cell viability incubated for 24 hrs by Celltiter-Glo assay; conditions: DU-145, 24 h
[41] = test system: LNCaP; experiment: Antiproliferative activity against human LNCaP cells assessed as reduction in cell viability incubated for 24 hrs by Celltiter-Glo assay
[42] = Antiproliferative activity against human IMR-90 cells assessed as reduction in cell viability incubated for 24 hrs by Celltiter-Glo assay
[43] = test system: PC-3; experiment: Antiproliferative activity against human PC-3 cells assessed as reduction in cell viability incubated for 24 hrs by Celltiter-Glo assay; conditions: PC-3, 24 h
[44] = Antiproliferative activity against human RWPE-1 cells assessed as reduction in cell viability incubated for 24 hrs by Celltiter-Glo assay
[45] = test system: HCT-116; experiment: Antiproliferative activity against human HCT-116 cells assessed as reduction in cell growth
[46] = test system: L02; experiment: Antiproliferative activity against human L02 cells assessed as reduction in cell growth
[47] = Antiproliferative activity against human BEAS-2B cells assessed as reduction in cell growth
[48] = test system: SJSA-1; experiment: Antiproliferative activity against human SJSA-1 cells assessed as reduction in cell growth
[49] = test system: SH-SY5Y; experiment: Antiproliferative activity against human SH-SY5Y cells assessed as reduction in cell growth
[50] = biological target: T2, E3 ubiquitin-protein ligase Mdm2; experiment: Binding affinity to MDM2 (unknown origin) assessed as inhibition constant
[51] = biological target: T1, Protein Mdm4; experiment: Binding affinity to MDMX (unknown origin) assessed as inhibition constant
[52] = test system: HL-60; experiment: Antiproliferative activity against human HL-60 cells assessed as reduction in cell viability incubated for 24 hrs by Celltiter-Glo assay; conditions: HL-60, 24 h
[53] = test system: MCF7; experiment: Antiproliferative activity against human MCF7 cells assessed as reduction in cell viability incubated for 24 hrs by Celltiter-Glo assay; conditions: MCF7, 24 h
[54] = test system: OCI-AML2; experiment: Antiproliferative activity against human OCI-AML2 cells assessed as reduction in cell viability incubated for 24 hrs by Celltiter-Glo assay; conditions: OCI-AML2, 24 h
[55] = biological target: T2, E3 ubiquitin-protein ligase Mdm2
[56] = biological target: T1, Protein Mdm4

T2 sequence (Q00987 whole entry): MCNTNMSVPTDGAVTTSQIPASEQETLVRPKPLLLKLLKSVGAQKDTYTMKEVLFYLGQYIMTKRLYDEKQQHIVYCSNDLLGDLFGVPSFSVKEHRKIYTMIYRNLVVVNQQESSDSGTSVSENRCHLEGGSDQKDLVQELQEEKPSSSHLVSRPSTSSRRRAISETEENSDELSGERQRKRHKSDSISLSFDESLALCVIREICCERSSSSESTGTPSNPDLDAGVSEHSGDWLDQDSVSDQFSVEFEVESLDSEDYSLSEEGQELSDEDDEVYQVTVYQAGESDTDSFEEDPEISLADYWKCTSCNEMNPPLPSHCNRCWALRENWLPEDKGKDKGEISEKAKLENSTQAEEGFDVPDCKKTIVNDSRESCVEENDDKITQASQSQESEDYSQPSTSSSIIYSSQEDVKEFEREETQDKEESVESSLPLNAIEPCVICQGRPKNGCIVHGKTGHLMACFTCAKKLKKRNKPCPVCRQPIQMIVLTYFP

## Cc1c2ccccc2c(CSC(=N)N)c2ccccc12
[1]
  IC50: 1200 nM
[2]
  IC50: 1500 nM
[3]
  IC50: 1200 nM
[4]
  IC50: 1500 nM
[5]
  IC50: 1200 nM
[6]
  IC50: 1500 nM
[7]
  IC50: 1200 nM
[8]
  IC50: 1500 nM
[9]
  IC50: 1200 nM
[10]
  IC50: 1500 nM
[11]
  IC50: 1500 nM
[12]
  IC50: 1500 nM
[13]
  IC50: 1500 nM
[14]
  IC50: 1200 nM

## Cc1c(Cl)ccc2c(/C=C3\NC(=O)N(C(C(=O)NC(CO)CO)c4ccc(F)c(F)c4)C3=O)c[nH]c12 (stereo not given)
[15]
  IC50: 1200 nM
[16]
  IC50: 25300 nM
[17]
  IC50: > 50000 nM
[18]
  IC50: 3500 nM
[19]
  IC50: 1700 nM
[20]
  IC50: 45300 nM
[21]
  IC50: 1100 nM
[22]
  IC50: 3200 nM
[23]
  IC50: 45500 nM
[24]
  IC50: 3000 nM

## CC(C)C(=O)Nc1ccccc1SC(=O)C(C)C
[25]
  IC50: 18000 nM
[26]
  IC50: 1500 nM
[27]
  IC50: 18000 nM
[28]
  IC50: 13100 nM
[29]
  IC50: > 30000 nM
[30]
  IC50: 16000 nM

## C[C@@H](c1ccc(Cl)cc1Cl)n1cnc(-c2ccccc2)c1-c1c(C(=O)Nc2cc(C(=O)O)ccc2N2CCC(N3CCCOC3=O)CC2)[nH]c2cc(Cl)ccc12
[31]
  Kd: < 0.1 nM

## Cc1ccnc(NC(c2cccc(Cl)c2Cl)c2ccc3cccnc3c2O)c1 (stereo not given)
[32]
  IC50: 600 nM

## Cc1c(Cl)ccc2c(/C=C3\NC(=O)N(Cc4ccc(F)c(F)c4)C3=O)c[nH]c12
[33]
  IC50: > 10000 nM
[34]
  IC50 at 72 h: 4500 nM
[35]
  IC50: 1400 nM
[36]
  IC50: 1900 nM
[37]
  IC50: 1000 nM

## Brc1c2ccccc2c(C[P+](c2ccccc2)(c2ccccc2)c2ccccc2)c2ccccc12
[38]
  IC50: 3700 nM
[39]
  IC50: 3700 nM

## C=C1C(=O)O[C@H]2C[C@H](C)[C@@]34C[C@]5(C(=O)OC6CC(C)=C([C@H](C)CCCOC(C)=O)[C@@H](O)C65)[C@@H](C(C)=C3C[C@H]12)C4OC(C)=O (stereo not given in full)
[40]
  IC50: 4000 nM
[41]
  IC50: 1700 nM
[42]
  IC50 at 24 h: > 50000 nM
[43]
  IC50: 1300 nM

## COC(C)(C)CCC[C@](C)(O)[C@H]1CC[C@]2(C)[C@@H]1[C@H](O)C[C@@H]1[C@@]3(C)CC[C@H](O)C(C)(C)[C@@H]3CC[C@]12C
[44]
  IC50 at 24 h: > 50000 nM
[40]
  IC50: 7600 nM
[41]
  IC50: 9600 nM
[43]
  IC50: 4400 nM

## CN(C)C1CCN(C(=O)CCC(=O)C(c2ccc(Cl)cc2)C(C(=O)c2ccc(Cl)cc2)c2ccc(F)cc2Cl)CC1 (stereo not given)
[45]
  IC50: 700 nM
[46]
  IC50: 15900 nM
[47]
  IC50: 18000 nM
[48]
  IC50: 600 nM
[49]
  IC50: 500 nM

## COc1cccc2c1NCC2C(=O)N[C@H]1CCN(c2ccc(C)cc2)C1 (stereo not given in full)
[28]
  IC50: > 50000 nM

## N#Cc1c2ccc(N)cc2nc2cc(N)ccc12
[25]
  IC50: 1300 nM
[27]
  IC50: 4300 nM
[29]
  IC50: 5300 nM
[30]
  IC50: 2800 nM

## O=C(CCC(=O)N1CCNCC1)C(c1ccc(Cl)cc1)C(C(=O)c1ccc(Cl)cc1)c1ccc(F)cc1Cl (stereo not given)
[45]
  IC50: 700 nM
[46]
  IC50: 12600 nM
[47]
  IC50: 16300 nM
[48]
  IC50: 600 nM
[49]
  IC50: 700 nM

## O=c1cc(-c2ccc(Oc3c(O)cc4oc(-c5ccc(O)cc5)cc(=O)c4c3O)cc2)oc2cc(O)cc(O)c12 [HINOKIFLAVONE]
[50]
  Ki: 13000 nM
[51]
  Ki: 12000 nM
[52]
  IC50: 11000 nM
[32]
  IC50: 14200 nM
[53]
  IC50: 16300 nM
[54]
  IC50: 4900 nM

## Ac-ETFLDLWKLELEN-NH2
[55]
  Kd: 149000 nM

## Ac-ETFLDLWRLLLQN-NH2
[56]
  Kd: 109000 nM
